For the test, the target named is TYK2 (Homo sapiens, UniProt P29597). The test can be described thus: TYK2 protein degradation in MOLT-4 cells by immunoblotting. Format: cell-based. Further details: endogenous in cells; host or cells: MOLT-4. The note with it: MOLT-4 cells, 24 hours. In outline: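 MOLT-4 cells were exposed to compounds at 0.5 and 5 μM for 24 h, then lysed in RIPA buffer with protease and phosphatase inhibitors. TYK2 was detected by SDS-PAGE immunoblot with chemiluminescence, and band densitometry gave percent degradation.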
Sequence of TYK2 (P29597 whole entry): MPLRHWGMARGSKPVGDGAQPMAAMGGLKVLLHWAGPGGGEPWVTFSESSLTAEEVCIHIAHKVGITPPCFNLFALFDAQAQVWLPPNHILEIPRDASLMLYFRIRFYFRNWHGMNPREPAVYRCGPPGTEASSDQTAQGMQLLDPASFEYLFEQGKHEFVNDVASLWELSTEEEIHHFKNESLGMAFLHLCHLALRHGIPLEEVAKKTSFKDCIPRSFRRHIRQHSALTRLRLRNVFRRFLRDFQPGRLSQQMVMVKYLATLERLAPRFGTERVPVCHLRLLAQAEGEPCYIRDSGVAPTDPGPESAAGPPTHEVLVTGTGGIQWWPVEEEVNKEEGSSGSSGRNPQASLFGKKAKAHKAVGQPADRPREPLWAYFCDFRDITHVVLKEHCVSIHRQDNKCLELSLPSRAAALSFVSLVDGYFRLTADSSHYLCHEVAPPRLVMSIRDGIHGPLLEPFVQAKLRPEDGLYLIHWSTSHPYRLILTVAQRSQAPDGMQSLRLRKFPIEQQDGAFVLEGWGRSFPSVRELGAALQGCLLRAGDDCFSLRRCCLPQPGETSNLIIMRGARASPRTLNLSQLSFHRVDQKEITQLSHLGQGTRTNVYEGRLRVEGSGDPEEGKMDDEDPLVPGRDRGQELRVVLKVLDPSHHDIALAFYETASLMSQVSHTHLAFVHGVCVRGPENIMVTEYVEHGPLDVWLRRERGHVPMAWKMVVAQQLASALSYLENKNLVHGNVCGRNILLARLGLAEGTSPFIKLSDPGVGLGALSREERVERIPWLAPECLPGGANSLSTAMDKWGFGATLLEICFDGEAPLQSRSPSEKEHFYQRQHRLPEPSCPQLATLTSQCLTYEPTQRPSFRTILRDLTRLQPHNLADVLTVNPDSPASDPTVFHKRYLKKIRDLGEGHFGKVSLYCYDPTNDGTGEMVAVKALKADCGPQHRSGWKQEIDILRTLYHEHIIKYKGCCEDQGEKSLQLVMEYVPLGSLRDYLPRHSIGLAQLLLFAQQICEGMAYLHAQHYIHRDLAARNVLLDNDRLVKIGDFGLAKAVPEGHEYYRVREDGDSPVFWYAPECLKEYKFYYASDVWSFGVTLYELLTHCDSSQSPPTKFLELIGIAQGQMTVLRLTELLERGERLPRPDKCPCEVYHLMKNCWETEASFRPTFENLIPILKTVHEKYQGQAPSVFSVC
(Immunoblotting shows a protein as a band on a membrane.)

The results in this text go back to US20240059671A1, “TYROSINE KINASE 2 (TYK2) DEGRADATION COMPOUNDS AND METHODS OF USE” (CULLGEN (SHANGHAI), INC., priority 2020, published 2024).

Turning to `CNC(=O)c1nnc(NC(=O)CNC(=O)CCOCCOCCOCCOCCOCCNc2cccc3c2C(=O)N(C2CCC(=O)NC2=O)C3=O)cc1Nc1cccc(-c2ncn(C)n2)c1OC` (centres unmarked) [CPD-053, 6-(1-((2-(2,6-Dioxopiperidin-3-yl)-1,3-dioxoisoindolin-4-yl)amino)-18-oxo-3,6,9,12,15-pentaoxa-19-azahenicosan-21-amido)-4-((2-methoxy-3-(1-methyl-1H-1,2,4-triazol-3-yl)phenyl)amino)-N-methylpyridazine-3-carboxamide], the “TYK2 Degradation (0.5 μM)” value is on record as at most 20% and the “TYK2 Degradation (5 μM)” value was at most 20%.
On to `CNC(=O)c1nnc(NC(=O)CNC(=O)CNc2ccc3c(c2)C(=O)N(C2CCC(=O)NC2=O)C3=O)cc1Nc1cccc(-c2ncn(C)n2)c1OC` (centres unmarked) [CPD-054, 6-(2-(2-((2-(2,6-Dioxopiperidin-3-yl)-1,3-dioxoisoindolin-5-yl)amino)acetamido)acetamido)-4-((2-methoxy-3-(1-methyl-1H-1,2,4-triazol-3-yl)phenyl)amino)-N-methylpyridazine-3-carboxamide], for which the “TYK2 Degradation (0.5 μM)” value was at most 20% and the “TYK2 Degradation (5 μM)” value is recorded as at most 20%.
As for `CNC(=O)c1nnc(NC(=O)CNC(=O)CCNc2ccc3c(c2)C(=O)N(C2CCC(=O)NC2=O)C3=O)cc1Nc1cccc(-c2ncn(C)n2)c1OC` (centres unmarked) [CPD-055, 6-(2-(3-((2-(2,6-Dioxopiperidin-3-yl)-1,3-dioxoisoindolin-5-yl)amino)propanamido)acetamido)-4-((2-methoxy-3-(1-methyl-1H-1,2,4-triazol-3-yl)phenyl)amino)-N-methylpyridazine-3-carboxamide], the “TYK2 Degradation (0.5 μM)” value is listed as at most 20% and the “TYK2 Degradation (5 μM)” value is listed as at most 20%.
As to `CNC(=O)c1nnc(NC(=O)CNC(=O)CCCNc2ccc3c(c2)C(=O)N(C2CCC(=O)NC2=O)C3=O)cc1Nc1cccc(-c2ncn(C)n2)c1OC` (centres unmarked) [CPD-056, 6-(2-(4-((2-(2,6-Dioxopiperidin-3-yl)-1,3-dioxoisoindolin-5-yl)amino)butanamido)acetamido)-4-((2-methoxy-3-(1-methyl-1H-1,2,4-triazol-3-yl)phenyl)amino)-N-methylpyridazine-3-carboxamide], the “TYK2 Degradation (0.5 μM)” value was at most 20% and the “TYK2 Degradation (5 μM)” value is at most 20%.
Take `CNC(=O)c1nnc(NC(=O)CNC(=O)CCCCNc2ccc3c(c2)C(=O)N(C2CCC(=O)NC2=O)C3=O)cc1Nc1cccc(-c2ncn(C)n2)c1OC` (centres unmarked) [CPD-057, 6-(2-(5-((2-(2,6-Dioxopiperidin-3-yl)-1,3-dioxoisoindolin-5-yl)amino)pentanamido)acetamido)-4-((2-methoxy-3-(1-methyl-1H-1,2,4-triazol-3-yl)phenyl)amino)-N-methylpyridazine-3-carboxamide]: the “TYK2 Degradation (0.5 μM)” value is at most 20% and the “TYK2 Degradation (5 μM)” value was at most 20%.
With `CNC(=O)c1nnc(NC(=O)CNC(=O)CCCCCNc2ccc3c(c2)C(=O)N(C2CCC(=O)NC2=O)C3=O)cc1Nc1cccc(-c2ncn(C)n2)c1OC` (centres unmarked) [CPD-058, 6-(2-(6-((2-(2,6-Dioxopiperidin-3-yl)-1,3-dioxoisoindolin-5-yl)amino)hexanamido)acetamido)-4-((2-methoxy-3-(1-methyl-1H-1,2,4-triazol-3-yl)phenyl)amino)-N-methylpyridazine-3-carboxamide], the “TYK2 Degradation (0.5 μM)” value is at most 20% and the “TYK2 Degradation (5 μM)” value is at most 20%.
`CNC(=O)c1nnc(NC(=O)CNC(=O)CCCCCCNc2ccc3c(c2)C(=O)N(C2CCC(=O)NC2=O)C3=O)cc1Nc1cccc(-c2ncn(C)n2)c1OC` (centres unmarked) [CPD-059, 6-(2-(7-((2-(2,6-Dioxopiperidin-3-yl)-1,3-dioxoisoindolin-5-yl)amino)heptanamido)acetamido)-4-((2-methoxy-3-(1-methyl-1H-1,2,4-triazol-3-yl)phenyl)amino)-N-methylpyridazine-3-carboxamide]: the “TYK2 Degradation (0.5 μM)” value is listed as at most 20% and the “TYK2 Degradation (5 μM)” value is reported as at most 20%.
`CNC(=O)c1nnc(NC(=O)CNC(=O)CCCCCCCNc2ccc3c(c2)C(=O)N(C2CCC(=O)NC2=O)C3=O)cc1Nc1cccc(-c2ncn(C)n2)c1OC` (centres unmarked) [CPD-060, 6-(2-(8-((2-(2,6-Dioxopiperidin-3-yl)-1,3-dioxoisoindolin-5-yl)amino)octanamido)acetamido)-4-((2-methoxy-3-(1-methyl-1H-1,2,4-triazol-3-yl)phenyl)amino)-N-methylpyridazine-3-carboxamide]: the “TYK2 Degradation (0.5 μM)” value was at most 20% and the “TYK2 Degradation (5 μM)” value was at most 20%.
As to `CNC(=O)c1nnc(NC(=O)CNC(=O)CCOCCNc2ccc3c(c2)C(=O)N(C2CCC(=O)NC2=O)C3=O)cc1Nc1cccc(-c2ncn(C)n2)c1OC` (centres unmarked) [CPD-061, 6-(2-(3-(2-((2-(2,6-Dioxopiperidin-3-yl)-1,3-dioxoisoindolin-5-yl)amino)ethoxy)propanamido)acetamido)-4-((2-methoxy-3-(1-methyl-1H-1,2,4-triazol-3-yl)phenyl)amino)-N-methylpyridazine-3-carboxamide], the “TYK2 Degradation (0.5 μM)” value is listed as at most 20% and the “TYK2 Degradation (5 μM)” value is at most 20%.
Consider `CNC(=O)c1nnc(NC(=O)CNC(=O)CCOCCOCCNc2ccc3c(c2)C(=O)N(C2CCC(=O)NC2=O)C3=O)cc1Nc1cccc(-c2ncn(C)n2)c1OC` (centres unmarked) [CPD-062, 6-(2-(3-(2-(2-((2-(2,6-Dioxopiperidin-3-yl)-1,3-dioxoisoindolin-5-yl)amino)ethoxy)ethoxy)propanamido)acetamido)-4-((2-methoxy-3-(1-methyl-1H-1,2,4-triazol-3-yl)phenyl)amino)-N-methylpyridazine-3-carboxamide], for which the “TYK2 Degradation (0.5 μM)” value was at most 20% and the “TYK2 Degradation (5 μM)” value was at most 20%.
Turning to `CNC(=O)c1nnc(NC(=O)CNC(=O)CCOCCOCCOCCNc2ccc3c(c2)C(=O)N(C2CCC(=O)NC2=O)C3=O)cc1Nc1cccc(-c2ncn(C)n2)c1OC` (centres unmarked) [CPD-063, 6-(1-((2-(2,6-Dioxopiperidin-3-yl)-1,3-dioxoisoindolin-5-yl)amino)-12-oxo-3,6,9-trioxa-13-azapentadecan-15-amido)-4-((2-methoxy-3-(1-methyl-1H-1,2,4-triazol-3-yl)phenyl)amino)-N-methylpyridazine-3-carboxamide], the “TYK2 Degradation (0.5 μM)” value is at most 20% and the “TYK2 Degradation (5 μM)” value worked out at 30%.
With `CNC(=O)c1nnc(NC(=O)CNC(=O)CCOCCOCCOCCOCCNc2ccc3c(c2)C(=O)N(C2CCC(=O)NC2=O)C3=O)cc1Nc1cccc(-c2ncn(C)n2)c1OC` (centres unmarked) [CPD-064, 6-(1-((2-(2,6-Dioxopiperidin-3-yl)-1,3-dioxoisoindolin-5-yl)amino)-15-oxo-3,6,9,12-tetraoxa-16-azaoctadecan-18-amido)-4-((2-methoxy-3-(1-methyl-1H-1,2,4-triazol-3-yl)phenyl)amino)-N-methylpyridazine-3-carboxamide], the “TYK2 Degradation (0.5 μM)” value is recorded as at most 20% and the “TYK2 Degradation (5 μM)” value is listed as at most 20%.
Regarding `CNC(=O)c1nnc(NC(=O)CNC(=O)CCOCCOCCOCCOCCOCCNc2ccc3c(c2)C(=O)N(C2CCC(=O)NC2=O)C3=O)cc1Nc1cccc(-c2ncn(C)n2)c1OC` (centres unmarked) [CPD-065, 6-(1-((2-(2,6-Dioxopiperidin-3-yl)-1,3-dioxoisoindolin-5-yl)amino)-18-oxo-3,6,9,12,15-pentaoxa-19-azahenicosan-21-amido)-4-((2-methoxy-3-(1-methyl-1H-1,2,4-triazol-3-yl)phenyl)amino)-N-methylpyridazine-3-carboxamide], the “TYK2 Degradation (0.5 μM)” value was at most 20% and the “TYK2 Degradation (5 μM)” value was at most 20%.
Consider `CNC(=O)c1nnc(NC(=O)C2CC2)cc1Nc1cccc(-c2ncn(CCNC(=O)COCC(=O)N[C@H](C(=O)N3C[C@H](O)C[C@H]3C(=O)NCc3ccc(-c4scnc4C)cc3)C(C)(C)C)n2)c1OC` [CPD-066, 6-(Cyclopropanecarboxamido)-4-((3-(1-(2-(2-(2-(((S)-1-((2S,4R)-4-hydroxy-2-((4-(4-methylthiazol-5-yl)benzyl)carbamoyl)pyrrolidin-1-yl)-3,3-dimethyl-1-oxobutan-2-yl)amino)-2-oxoethoxy)acetamido)ethyl)-1H-1,2,4-triazol-3-yl)-2-methoxyphenyl)amino)-N-methylpyridazine-3-carboxamide], for which the “TYK2 Degradation (0.5 μM)” value is recorded as at most 20% and the “TYK2 Degradation (5 μM)” value was at most 20%.
As for `CNC(=O)c1nnc(NC(=O)C2CC2)cc1Nc1cccc(-c2ncn(CCNC(=O)CCOCCC(=O)N[C@H](C(=O)N3C[C@H](O)C[C@H]3C(=O)NCc3ccc(-c4scnc4C)cc3)C(C)(C)C)n2)c1OC` [CPD-067, 6-(Cyclopropanecarboxamido)-4-((3-(1-(2-(3-(3-(((S)-1-((2S,4R)-4-hydroxy-2-((4-(4-methylthiazol-5-yl)benzyl)carbamoyl)pyrrolidin-1-yl)-3,3-dimethyl-1-oxobutan-2-yl)amino)-3-oxopropoxy)propanamido)ethyl)-1H-1,2,4-triazol-3-yl)-2-methoxyphenyl)amino)-N-methylpyridazine-3-carboxamide], the “TYK2 Degradation (0.5 μM)” value is on record as at most 20% and the “TYK2 Degradation (5 μM)” value is at most 20%.
As to `CNC(=O)c1nnc(NC(=O)C2CC2)cc1Nc1cccc(-c2ncn(CCNC(=O)COCCOCC(=O)N[C@H](C(=O)N3C[C@H](O)C[C@H]3C(=O)NCc3ccc(-c4scnc4C)cc3)C(C)(C)C)n2)c1OC` [CPD-068, 6-(Cyclopropanecarboxamido)-4-((3-(1-((S)-13-((2S,4R)-4-hydroxy-2-((4-(4-methylthiazol-5-yl)benzyl)carbamoyl)pyrrolidine-1-carbonyl)-14,14-dimethyl-4,11-dioxo-6,9-dioxa-3,12-diazapentadecyl)-1H-1,2,4-triazol-3-yl)-2-methoxyphenyl)amino)-N-methylpyridazine-3-carboxamide], the “TYK2 Degradation (0.5 μM)” value is given as at most 20% and the “TYK2 Degradation (5 μM)” value was at most 20%.
